Data reported in ChEMBL document CHEMBL1144603, “Synthesis and biological evaluation of new taxoids derived from 2-deacetoxytaxinine J” (Bioorg Med Chem Lett, 2007).
Activity calls are given as the source filed them. The rule behind the calls is not given here.

Legend:
MCF7 [1] = experiment: MDR-reversal in paclitaxel-resistant […] cell growth assay as reduction of IC50 at 1uM; format: functional, cell-based, Homo sapiens
MCF7 [2] = experiment: MDR-reversal in paclitaxel-resistant […] cell growth assay as reduction of IC50 at 0.1uM; format: functional, cell-based, Homo sapiens
MCF7 [3] = experiment: MDR-reversal in paclitaxel-resistant […] cell growth assay; format: functional, cell-based; conditions: Homo sapiens

| Structure (SMILES) | percent reduction of paclitaxel IC50 (MCF7 [1]) | IC50 reduction (MCF7 [2]) | Activity (MCF7 [3]) |
| --- | --- | --- | --- |
| C=C1[C@H]2C[C@@H]3C[C@H](OC(=O)[C@@H](O)Cc4ccccc4)C(C)=C([C@@H](OC(C)=O)[C@H](OC(C)=O)[C@]2(C)[C@@H](OC(C)=O)C[C@@H]1O)[C@@H]3C | 89% | 24% | – |
| C=C1[C@@H](OC(=O)/C=C/c2ccccc2)C[C@H](OC(C)=O)[C@]2(C)[C@@H]1C[C@@H]1C[C@H](OC(=O)C(O)[C@@H](CC(C)C)NC(=O)OC(C)(C)C)C(C)=C([C@@H](OC(C)=O)[C@@H]2OC(C)=O)[C@@H]1C (some centres undefined) | – | – | inactive |
| C=C1[C@@H](OC(=O)/C=C/c2ccccc2)C[C@H](OC(C)=O)[C@]2(C)[C@@H]1C[C@@H]1C[C@H](OC(=O)/C=C/c3ccccc3)C(C)=C([C@@H](OC(C)=O)[C@@H]2OC(C)=O)[C@@H]1C | – | – | inactive |
| C=C1[C@@H](OC(=O)c2ccccc2)C[C@H](OC(C)=O)[C@]2(C)[C@@H]1C[C@@H]1C[C@H](OC(C)=O)C(C)=C(C1C)[C@@H](OC(C)=O)[C@@H]2OC(C)=O (single isomer, unassigned) | – | – | inactive |
| C=C1[C@@H](OC(=O)[C@@H]2OC(c3ccc(OC)cc3OC)N(C(=O)OC(C)(C)C)[C@H]2CC(C)C)C[C@H](OC(C)=O)[C@]2(C)[C@@H]1C[C@@H]1C[C@H](OC(C)=O)C(C)=C([C@@H](OC(C)=O)[C@@H]2OC(C)=O)[C@@H]1C (some centres undefined) | – | – | inactive |
| CC(=O)O[C@H]1C[C@H]2C[C@@H]3[C@]4(CO4)[C@@H](OC(=O)/C=C/c4ccccc4)C[C@H](OC(C)=O)[C@@]3(C)[C@@H](OC(C)=O)[C@H](OC(C)=O)C(=C1C)[C@@H]2C | 85% | – | – |
| C=C1[C@@H](O[Si](CC)(CC)CC)C[C@H](OC(C)=O)[C@]2(C)[C@@H]1C[C@@H]1C[C@H](OC(C)=O)C(C)=C(C1C)[C@@H](OC(C)=O)[C@@H]2OC(C)=O (single isomer, unassigned) | 92% | – | – |
| C=C1[C@@H](OC(=O)/C=C/c2ccccc2)C[C@H](OC(C)=O)[C@]2(C)[C@@H]1C[C@@H]1C[C@H](OC(=O)[C@@H]3OC(c4ccc(OC)cc4OC)N(C(=O)OC(C)(C)C)[C@H]3CC(C)C)C(C)=C([C@@H](OC(C)=O)[C@@H]2OC(C)=O)[C@@H]1C (some centres undefined) | – | – | inactive |

Second part, led by results:

| percent reduction of paclitaxel IC50 (MCF7 [1]) | IC50 reduction (MCF7 [2]) | Structure (SMILES) | Activity (MCF7 [3]) |
| --- | --- | --- | --- |
| 47% | – | C=C1[C@H]2C[C@@H]3C[C@H](O)C(C)=C([C@@H](OC(C)=O)[C@H](OC(C)=O)[C@]2(C)[C@@H](OC(C)=O)C[C@@H]1O)[C@@H]3C | – |
| 95% | 67% | C=C1[C@H]2C[C@@H]3C[C@H](OC(=O)c4ccccc4)C(C)=C([C@@H](OC(C)=O)[C@H](OC(C)=O)[C@]2(C)[C@@H](OC(C)=O)C[C@@H]1O)[C@@H]3C | – |
| 92% | 22% | C=C1[C@@H](OC(=O)/C=C/c2ccccc2)C[C@H](OC(C)=O)[C@]2(C)[C@@H]1C[C@@H]1C[C@H](OC(C)=O)[C@]3(C)O[C@@]3([C@@H]1C)[C@@H](OC(C)=O)[C@@H]2OC(C)=O | – |
| 70% | 2% | CC(=O)O[C@H]1C[C@H](OC(=O)/C=C/c2ccccc2)[C@@]2(CO2)[C@H]2C[C@@H]3C[C@H](OC(C)=O)[C@]4(C)O[C@@]4([C@@H]3C)[C@@H](OC(C)=O)[C@H](OC(C)=O)[C@]12C | – |
| 93% | – | C=C1[C@H]2C[C@@H]3C[C@H](OC(=O)[C@H](O)[C@H](CC(C)C)NC(=O)OC(C)(C)C)C(C)=C([C@@H](OC(C)=O)[C@H](OC(C)=O)[C@]2(C)[C@@H](OC(C)=O)C[C@@H]1O)[C@@H]3C | – |
| 92% | 35% | C=C1[C@H]2C[C@@H]3C[C@H](OC(=O)/C=C/c4ccccc4)C(C)=C([C@@H](OC(C)=O)[C@H](OC(C)=O)[C@]2(C)[C@@H](OC(C)=O)C[C@@H]1O)[C@@H]3C | – |
